# Test system: cell-free protein synthesis
# Test: Cell-free protein synthesis assay (luciferase, coupled transcription/translation)
# Format: biochemical
# Set-up: key to Activity in luciferase assay: ++: same or higher than WT protein.; +: within 2-fold of WT activity.; +/−: within 3-fold of WT activity.; −−: less than one-third of WT activity
# Details: multiple substitution variants, relative to wild-type protein
# From the text: The term “biological activity” as used herein is the ability of the modified or non-modified bouganin protein to inhibit protein synthesis on ribosomes, which can be assessed in a number of ways. It should be noted that a modified bouganin protein will still have biological activity even if such activity is lower than that of the non-modified protein, however it would need to have some level of detectable activity. For example, the biological activity of the modified or non-modified bouganin protein can be assessed by identifying their N-glycosidase activity, and in particular with sufficient activity to provide significant inhibition of protein translation. One such suitable assay involves testing the activity of the variant bouganin proteins in comparison to non-modified bouganin in a cell-free protein synthesis assay. A coupled transcription/translation mix containing methionine, DNA encoding the reporter protein luciferase and serial dilutions of non-modified and modified bouganin protein are co-incubated. The levels of translated luciferase are readily detected using a luminescence counter following addition of a substrate reagent. The measured luminescence is inversely proportional to the bouganin N-glycosidase activity present in the reaction. It is usual to provide a negative control such as an in-active bouganin protein, for example containing a Y70A substitution.
# The biological activity of the proteins of the invention can equally be assessed in many ways. In one embodiment, modified bouganin molecules are identified with N-glycosidase activity, and in particular with sufficient activity to provide significant inhibition of protein translation. One such suitable assay involves testing the activity of the modified bouganin proteins in comparison to non-modified bouganin in a cell-free protein synthesis assay. A coupled transcription/translation mix containing methionine, DNA encoding the reporter protein luciferase and serial dilutions of non-modified and modified bouganin proteins are co-incubated. The levels of translated luciferase are readily detected using a luminescence counter following addition of a substrate reagent. The measured luminescence is inversely proportional to the bouganin N-glycosidase activity present in the reaction. It is usual to provide a negative control such as an in-active bouganin protein for example containing a Y70A substitution.
# The activity of the wild-type and modified (mutant) bouganin proteins was tested by measuring their ability to inhibit protein synthesis in a cell-free protein synthesis assay.
# A mixture of 10 μl TNT Coupled Transcription/Translation mix (Promega), 20 […] methionine, 120 ng pT7 luciferase DNA (Promega) and serial dilutions of WT and mutant bouganin protein in a final volume of 12.5 μl were incubated at 30° C. for one hour, after which the reaction was stopped by addition of 100 μl “SteadyGlow” luciferase assay reagent (Promega). The luciferase activity was measured using a Wallac luminescence counter. Active bouganin protein is detected as a decrease in measured luciferase activity. Each modified bouganin protein was tested in at least 5 concentrations, with each data point in duplicate. Positive and negative controls were included in each experiment.
# In each instance results are expressed relative to wild-type protein activity.
row,Substance,Activity in luciferase assay
1,"Bou157: modified bouganin with V123A, D127A, Y133Q, I152A (SEQ ID No 14)",++
2,"Bou156: modified bouganin with V123A, D127A, Y133N, I152A (SEQ ID No 13)",++

# Same assay, conditions: single substitution variants, relative to wild-type protein
row,Substance,Activity in luciferase assay
1,E129K: modified bouganin protein with substitution E129K,−−
2,E129G: modified bouganin protein with substitution E129G,++
3,Y133S: modified bouganin protein with substitution Y133S,++
4,Y133P: modified bouganin protein with substitution Y133P,−−
5,V123N: modified bouganin protein with substitution V123N,−−
6,V123D: modified bouganin protein with substitution V123D,−−
7,Y133G: modified bouganin protein with substitution Y133G,++
8,V123H: modified bouganin protein with substitution V123H,−−
9,E129R: modified bouganin protein with substitution E129R,−−
10,V123G: modified bouganin protein with substitution V123G,−−
11,V123T: modified bouganin protein with substitution V123T,+/− (within 3-fold of WT activity.)
12,V123A: modified bouganin protein with substitution V123A,++
13,Y133T: modified bouganin protein with substitution Y133T,++
14,V123S: modified bouganin protein with substitution V123S,−−
15,I158P: modified bouganin protein with substitution I158P,−−
16,Y133Q: modified bouganin protein with substitution Y133Q,++
17,F155P: modified bouganin protein with substitution F155P,−−
18,"Y70A: inactive bouganin with Y70A substitution, negative control (SEQ ID NO. 129) [reference compound]",−−
19,I152E: modified bouganin protein with substitution I152E,−−

row,Substance,Activity in luciferase assay
1,D127A: modified bouganin protein with substitution D127A,++
2,Y133H: modified bouganin protein with substitution Y133H,++
3,Y133N: modified bouganin protein with substitution Y133N,++
4,V123E: modified bouganin protein with substitution V123E,−−
5,D127G: modified bouganin protein with substitution D127G,++
6,I152A: modified bouganin protein with substitution I152A,++
7,Y133E: modified bouganin protein with substitution Y133E,+/− (within 3-fold of WT activity.)
8,V123K: modified bouganin protein with substitution V123K,−−
9,Y133R: modified bouganin protein with substitution Y133R,++
10,Y133A: modified bouganin protein with substitution Y133A,++
11,E129Q: modified bouganin protein with substitution E129Q,+/− (within 3-fold of WT activity.)
12,V123P: modified bouganin protein with substitution V123P,−−
13,E151T I152E,−−
14,Y133D: modified bouganin protein with substitution Y133D,++
15,V123Q: modified bouganin protein with substitution V123Q,++
16,Y133K: modified bouganin protein with substitution Y133K,++
17,F155H: modified bouganin protein with substitution F155H,−−
18,I152Q: modified bouganin protein with substitution I152Q,++
19,V123R: modified bouganin protein with substitution V123R,−−

# Same assay, conditions: when conjugated to the Fab fragment (FIG. 12)
row,Substance,potency in cell-free assay
1,"Bou156: modified bouganin with V123A, D127A, Y133N, I152A (SEQ ID No 13)",retained its potency

# From patent US20050238642A1, “Modified bouganin proteins, cytotoxins and methods and uses thereof” (priority 2004, published 2005)
